Assay results: patent US9925240B2, “Methods of treating and preventing cancer drug resistance” (Genentech, Inc., priority 2013, dated 2018)

Legend:
HCC4006-ER cells = assay: Cell viability assay (CellTiter-Glo) in erlotinib-resistant HCC4006-ER cells; format: cell-based; conditions: for Ability to overcome resistance to erlotinib (cell viability, FIG. 3 and FIG. 5): 72 h, in combination with erlotinib
Protocol: 10^3 cells were plated in each well of 384-well plate. 24 hours after plating, added indicated concentration drug to each well. 72 hours after dosing, added CellTiter-Glo Reagent (CellTiter Glo Luminescent Cell Viability Assay, Promega) to each well, incubate the plate at room temperature for 10 minutes, record luminescence by EnVision 2101 Multilabel Reader (PerkinElmer).
Drug-sensitive cells (HCC4006 and HCC827) were treated with 2 uM erlotinib for 2 months. Fresh media containing 2 uM erlotinib were replaced every 3 to 4 days. Viable cells were collected as erlotinib-resistant cells.

HCC4006 cells = assay: Clonogenic assay (crystal violet) in HCC4006 cells; format: cell-based; conditions: erlotinib 1 μM plus PD173074 0.5 μM, continuous treatment, stained at 6 weeks
Protocol: 10^5 cells were plated in 10 cm^2 plate. 24 hours after plating, media was removed and replaced with media containing indicated drugs. Fresh media was replaced every 3 to 4 days until cells reached confluence (4 weeks) or 6 weeks to stop culture. Media was removed, cells were washed with PBS, then stained with 0.5% crystal violet for 20 minutes at room temperature. Dye was removed, cell monolayers were washed with water, dry the plate and take a picture as record.

SMILES	Ability to overcome resistance to erlotinib (cell viability, FIG. 3 and FIG. 5) (HCC4006-ER cells; HCC4006-ER cells)	Screen of small molecule inhibitors in the presence or absence of erlotinib (growth inhibition, FIG. 8) (HCC4006-ER cells; HCC4006-ER cells, with or without erlotinib)	Development of resistance to erlotinib (FIG. 6) (HCC4006 cells)	Sensitivity of cells to erlotinib (cell viability, annexin V, FIG. 1A-C) (HCC4006-ER cells; HCC4006-ER vs parental HCC4006, 72 h)
CCN(CC)CCCCNc1ncc2cc(-c3cc(OC)cc(OC)c3)c(NC(=O)NC(C)(C)C)nc2n1 [PD173074, N-[2-[[4-(diethylamino)butyl]amino]-6-(3,5-dimethoxyphenyl)pyrido[2,3-d]pyrimidin-7-yl]-N′-(1,1-dimethylethyl)-urea]	overcame resistance to erlotinib	could reverse resistance to erlotinib	can suppress the development of resistance to erlotinib	–
Nc1nc(Nc2ccc3c(c2)CCC(N2CCCC2)CC3)nn1-c1cc2c(nn1)-c1ccccc1CCC2 (centres unmarked) [R428]	cannot overcome resistance to erlotinib	–	–	–
C#Cc1cccc(Nc2ncnc3cc(OCCOC)c(OCCOC)cc23)c1 [erlotinib, N-(3-ethynylphenyl)-6,7-bis(2-methoxyethoxy)-4-quinazolinamine]	–	–	–	resistant
